# Source: ChEMBL document CHEMBL1201862, “PubChem BioAssay data set” (2004)
# Several values for one entry are separate records, joined by “and”; a condition that tells them apart may be missing. Identical values can stand only once.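 Briefly, cells in 96-well plates were exposed to five compound concentrations for 48 h, and endpoints were estimated by linear interpolation. GI50 = concentration required for 50% inhibition of growth.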 Activity calls are given as the source filed them. Cut-off read from the data, not from the text of the source: active = GI50 up to about 1.1 µM and inactive = higher.
# Tests used:
# Test in all cases: NCI tumour cell line growth inhibition, 48 h
# SNB-75 = system: SNB-75
# RPMI-8226 = system: RPMI-8226
# SR = system: SR
# SK-MEL-2 = system: SK-MEL-2
# NCI/ADR-RES = system: NCI/ADR-RES
# OVCAR-4 = system: OVCAR-4
# UO-31 = system: UO-31
# OVCAR-3 = system: OVCAR-3
# SF-268 = system: SF-268
# CCRF-CEM = system: CCRF-CEM
# M14 = system: M14
# A498 = system: A498
# EKVX = system: EKVX
# HOP-92 = system: HOP-92
# COLO 205 = system: COLO 205
# ACHN = system: ACHN
# KM12 = system: KM12
# HCT-15 = system: HCT-15
# UACC-257 = system: UACC-257
# HCC 2998 = system: HCC 2998
Structure (SMILES),GI50 (SNB-75),GI50 (RPMI-8226),GI50 (SR),GI50 (SK-MEL-2),GI50 (NCI/ADR-RES),GI50 (OVCAR-4),GI50 (UO-31),GI50 (OVCAR-3),GI50 (SF-268),GI50 (CCRF-CEM),GI50 (M14),GI50 (A498),GI50 (EKVX),GI50 (HOP-92),GI50 (COLO 205),GI50 (ACHN),GI50 (KM12),GI50 (HCT-15) [µM],GI50 (UACC-257),GI50 (HCC 2998)
C1=N\CCOCC/N=C\c2ccc(cc2)OCc2cccc(n2)COc2ccc/1cc2,> 100 µM (inactive),> 100 µM (inactive),> 100 µM (inactive),> 100 µM (inactive),> 100 µM (inactive),> 100 µM (inactive),> 100 µM (inactive),37.6 µM (inactive),> 100 µM (inactive),> 100 µM (inactive),> 100 µM (inactive),> 100 µM (inactive),> 100 µM (inactive),> 100 µM (inactive),> 100 µM (inactive),> 100 µM (inactive),> 100 µM (inactive),> 100,> 100 µM (inactive),–
Oc1ccc2ccccc2c1/N=N/c1ccccc1,> 100 µM (inactive),> 100 µM (inactive),> 100 µM (inactive),> 100 µM (inactive),> 100 µM (inactive),> 70.5 µM (inactive) and 45.2 µM (inactive),> 100 µM (inactive),51.6 µM (inactive),–,> 100 µM (inactive),> 100 µM (inactive),> 100 µM (inactive),–,73.5 µM (inactive),> 100 µM (inactive),61 µM (inactive) and 60.7 µM (inactive),–,> 100,> 100 µM (inactive),> 100 µM (inactive)
O=C(O)CNC(=O)c1ccccc1O [SALICYLURIC ACID],> 100 µM (inactive),> 100 µM (inactive),> 100 µM (inactive),> 100 µM (inactive),> 100 µM (inactive),> 100 µM (inactive),> 100 µM (inactive),> 100 µM (inactive),> 100 µM (inactive),> 100 µM (inactive),> 100 µM (inactive),> 100 µM (inactive),> 100 µM (inactive),> 100 µM (inactive),> 100 µM (inactive),> 100 µM (inactive),> 100 µM (inactive),> 100,> 100 µM (inactive),–
C=C1[C@H](OC(C)=O)[C@H]2[C@@H](OC(C)=O)[C@@H](C)C[C@]2(C)C(=O)[C@H](C)/C=C/C(C)(C)C(=O)[C@H](OCC(C)C)[C@H]1OC(C)=O,> 25 µM (inactive),–,> 25 µM (inactive),> 25 µM (inactive),> 25 µM (inactive),> 25 µM (inactive),> 25 µM (inactive),> 25 µM (inactive),> 25 µM (inactive),20.2 µM (inactive),> 25 µM (inactive),> 25 µM (inactive),> 25 µM (inactive),> 25 µM (inactive),12.9 µM (inactive),> 25 µM (inactive),> 25 µM (inactive),> 25,> 25 µM (inactive),> 25 µM (inactive)
